Source: patent US8309546B2, “Morpholinopurine derivatives” (Daiichi Sankyo Company, Limited, priority 2008, dated 2012)

Experiments:
[1] = target: T1, human mTOR (His-tagged mTOR (1362C)) (Homo sapiens, UniProt P42345); test: mTOR kinase activity inhibition assay; format: biochemical; conditions: HTRF, read-out: IC50 against mTOR
T1 construct: the 1362 to 2549 amino acid portion on the C terminus side of human mTOR; His tag (N); made in house
Method in brief: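 Crude His-tagged mTOR (aa 1362–2549) from stable HEK293 cells, with 8 μg/ml biotinylated peptide in 50 mM HEPES pH 7.5, 20 mM MnCl2; compound diluted in 20 μM ATP solution, reaction 3 h at room temperature. Phospho-peptide detected by HTRF (anti-phospho-S6K Thr389 cryptate/streptavidin-XL665, overnight at 4°C), 665/620 nm ratio. IC50 derived from curve fit of % inhibition.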

[2] = tested on: human endometrial cancer cell strain AN3CA tumor; test: Anti-tumor effect assay using mouse subcutaneous transplantation model; format: in vivo, female nude mouse; conditions: AN3-CA, oral, tumor weight vs negative control, read-out: Anti-tumor effect (tumor growth inhibition rate)
Method in brief: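 Female nude mice bore subcutaneous AN3CA tumour-section xenografts and were grouped at 80 to 200 mm^3 estimated volume. Compound was given orally at a set dose for 8 consecutive days with tumour weight taken the next day, or for 5 days with weight taken on the final dosing day. Effect = {1−(treated/negative-control tumour weight)}×100.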

T1 sequence (P42345 1362-2549): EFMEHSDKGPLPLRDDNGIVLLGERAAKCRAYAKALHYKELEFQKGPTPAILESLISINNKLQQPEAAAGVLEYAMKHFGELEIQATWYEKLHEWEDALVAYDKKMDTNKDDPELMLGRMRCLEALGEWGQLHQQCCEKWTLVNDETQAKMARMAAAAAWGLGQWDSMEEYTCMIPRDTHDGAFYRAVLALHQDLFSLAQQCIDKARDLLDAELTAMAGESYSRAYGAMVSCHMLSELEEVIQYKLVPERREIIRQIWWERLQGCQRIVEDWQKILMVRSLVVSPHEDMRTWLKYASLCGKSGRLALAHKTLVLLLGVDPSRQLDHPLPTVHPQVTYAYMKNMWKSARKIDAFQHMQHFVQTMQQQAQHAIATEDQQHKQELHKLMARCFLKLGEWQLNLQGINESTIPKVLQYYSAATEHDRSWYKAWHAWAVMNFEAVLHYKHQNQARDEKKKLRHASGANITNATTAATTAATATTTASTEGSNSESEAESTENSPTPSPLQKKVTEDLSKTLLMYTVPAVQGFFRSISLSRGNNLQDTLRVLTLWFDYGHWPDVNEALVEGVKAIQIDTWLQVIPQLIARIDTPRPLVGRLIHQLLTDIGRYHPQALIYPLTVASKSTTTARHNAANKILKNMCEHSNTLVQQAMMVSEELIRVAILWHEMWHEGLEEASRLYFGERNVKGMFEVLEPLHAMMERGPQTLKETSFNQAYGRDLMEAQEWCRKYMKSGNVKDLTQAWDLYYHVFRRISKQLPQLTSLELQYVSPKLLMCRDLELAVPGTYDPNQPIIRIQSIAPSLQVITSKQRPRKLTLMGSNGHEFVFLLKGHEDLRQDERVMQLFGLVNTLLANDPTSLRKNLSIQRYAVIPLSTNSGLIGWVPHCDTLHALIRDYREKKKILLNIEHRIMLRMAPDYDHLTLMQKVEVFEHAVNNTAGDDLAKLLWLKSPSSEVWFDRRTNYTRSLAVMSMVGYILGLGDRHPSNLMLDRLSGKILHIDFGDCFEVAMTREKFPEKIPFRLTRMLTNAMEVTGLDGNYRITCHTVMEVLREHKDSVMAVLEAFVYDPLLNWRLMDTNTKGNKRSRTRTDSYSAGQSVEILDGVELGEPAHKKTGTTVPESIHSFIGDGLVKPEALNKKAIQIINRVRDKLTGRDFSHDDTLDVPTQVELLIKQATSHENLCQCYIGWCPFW

Compound	IC50 [1] [nM]	inhibition in vivo at 1.875 mg/kg/day ([2]; 120 h, 1.875 mg/kg/day, 5 consecutive days) [%]	inhibition in vivo at 7.5 mg/kg/day ([2]; 120 h, 7.5 mg/kg/day, 5 consecutive days) [%]	inhibition in vivo at 5 mg/kg/day ([2]; 5 mg/kg/day, 8 or 5 consecutive days depending on compound) [%]	inhibition in vivo at 10 mg/kg/day ([2]; 10 mg/kg/day, 8 or 5 consecutive days depending on compound) [%]
C[C@H](O)C(=O)N1CCN(c2nc3c(N4CCOCC4)nc(-c4cnc(N)nc4)nc3n2CC(F)(F)F)C[C@H]1C [Example 110, (2S)-1-{(2R)-4-[2-(2-Aminopyrimidin-5-yl)-6-morpholin-4-yl-9-(2,2,2-trifluoroethyl)-9H-purin-8-yl]-2-methylpiperazin-1-yl}-1-oxopropan-2-ol]	< 10	43	73	–	–
C[C@H]1COCCN1c1nc(-c2cnc(N)nc2)nc2c1nc(N1CCN(S(C)(=O)=O)CC1)n2CC(F)(F)F [Example 127, 5-{6-[(3S)-3-Methylmorpholin-4-yl]-8-[4-(methylsulfonyl)piperazin-1-yl]-9-(2,2,2-trifluoroethyl)-9H-purin-2-yl}pyrimidin-2-amine]	< 10	–	–	69	79
